The record followed here is ChEMBL document CHEMBL1124742 (J Med Chem, 1990).

Series [1] concerns UV4. As to the kind of experiment: In vitro cytotoxicity against transformed chinese hamster fibroblast line UV4. It counts as functional, cell-based. The note with it: Cricetulus griseus.
Series [2] in a line: Evaluated for the mustard reactivity by determining rate constant for alkylation of 4-(4-nitrobenzyl)pyridine using NBP alkylation assay. It counts as ADME.
The subject of series [3] is P388. As to the kind of experiment: In vitro cytotoxicity against P388 murine leukemia. It counts as functional, cell-based. The note with it: Mus musculus.
The subject of series [4] is P388. Nature of the series: Optimal dose of drug administered as a single dose in 0.1 or 0.2 mL of 30% v/v ethanol/water on day one after ip inoculation of 10e6 P388 leukemia cells. It counts as functional, Mus musculus.
The next series is filed under the species Cricetulus griseus. As to the kind of experiment: Hypersensitivity factor(HF) was determined from the ratio of IC50(AA8) / IC50(UV4). It counts as functional.
For series [5], the system named is CHO-AA8. Nature of the series: In vitro cytotoxicity against transformed chinese hamster fibroblast line AA8. The note with it: Cricetulus griseus. It counts as functional, cell-based.
A short description of series [6]: Evaluated for the mustard reactivity by determining rate constant for hydrolysis of mustard in aqueous acetone (K H). It counts as ADME. The note with it: buffer.
Series [7] deals with P388. Nature of the series: In vivo percentage increase in lifespan of drug treated tumor-bearing mice at a dose of 13.3 mg/kg. It counts as functional. The note with it: Mus musculus.
For series [8], the system named is P388. Nature of the series: In vivo percentage increase in lifespan of drug treated tumor-bearing mice at a dose of 45 mg/kg. It counts as functional. The note with it: Mus musculus.
Series [9] relates to CHO-AA8. As to the kind of experiment: (§1) Tested for the in vitro cytotoxicity against transformed chinese hamster fibroblast line AA8. It counts as functional, cell-based. The note with it: Cricetulus griseus.
Series [10] relates to UV4. As to the kind of experiment: Tested for the in vitro cytotoxicity against transformed chinese hamster fibroblast line UV4. Conditions: Cricetulus griseus. It counts as functional, cell-based.
The subject of series [11] is CHO-AA8. Described as §1. Conditions: Cricetulus griseus. It counts as cell-based.
Series [12] concerns P388. As to the kind of experiment: In vivo percentage increase in lifespan of drug treated tumor-bearing mice at a dose of 225 mg/kg. It counts as functional. The note with it: Mus musculus.
Series [13] concerns P388. Nature of the series: Tested for the in vitro cytotoxicity against P388 murine leukemia. It counts as cell-based. The note with it: Mus musculus.
For series [14], the system named is P388. Nature of the series: In vivo percentage increase in lifespan of drug treated tumor-bearing mice at a dose of 20 mg/kg. It counts as functional. Conditions: Mus musculus.

One may read the IC50 as the point on the concentration scale where inhibition reaches its midpoint. A low value points to higher potency. For orientation: ILS means the gain in survival time of treated over control animals, in per cent. A high value points to much gain in survival.

With `ClCCN(CCCl)c1ccc(CCCCCCNc2c3ccccc3nc3ccccc23)cc1`, the values for the IC50 in the series on UV4 [1], in the series on P388 [3] and in the series on CHO-AA8 [5] were 15 nM, 130 nM and 530 nM, respectively. For the same compound, the “K NBP” value in [2] is 157000 s⁻¹. The same compound returned an OD in the series with P388 [4] of 13.3 mg/kg. Besides, in the series listed under Cricetulus griseus, the Ratio was 36. Moreover, the “K H” value in series [6] was 33900 s⁻¹. Moreover, the ILS at 13.3 mg/kg in the series with P388 [7] came to 22%.

Regarding `O=C(CCCCCNc1c2ccccc2nc2ccccc12)c1ccc(N(CCCl)CCCl)cc1`, the IC50 in the series with UV4 [1] was determined as 593 nM; with P388 [3] it was 330 nM; with CHO-AA8 [5] it was 3510 nM. Further, the “K NBP” value in [2] amounted to 1800 s⁻¹. In the series on P388 [4], this compound had an OD of 65 mg/kg. Moreover, the Ratio in the series listed under Cricetulus griseus was 5.9. In addition, the “K H” value in series [6] came to 1100 s⁻¹.

Compound `O=S(=O)(CCCCCNc1c2ccccc2nc2ccccc12)c1ccc(N(CCCl)CCCl)cc1` gave an increase in life span (ILS) at 45 mg/kg with P388 [8] of 33%. Besides, the IC50 was determined as 570 nM in the series with CHO-AA8 [9], 640 nM with P388 [3] and 570 nM in the series on UV4 [10]. Also, in series [2], the “K NBP” value was 500 s⁻¹. Further, the OD with P388 [4] came to 45 mg/kg. In addition, in the series listed under Cricetulus griseus, the Ratio was found to be 1. Also, the “K H” value in series [6] is 2800 s⁻¹.

As for `O=C(NCCCCNc1c2ccccc2nc2ccccc12)c1ccc(N(CCCl)CCCl)cc1`, the IC50 turned out to be 673 nM in the series with UV4 [1], 510 nM with P388 [3] and 3700 nM in the series with CHO-AA8 [5]. Moreover, the “K NBP” value in series [2] turned out to be 171000 s⁻¹. For the same compound, the OD in the series on P388 [4] stood at 20 mg/kg. Moreover, the Ratio in the series filed under Cricetulus griseus was 5.5. Also, the “K H” value in series [6] came to 25700 s⁻¹.

For `O=C(O)CCCc1ccc(N(CCCl)CCCl)cc1` [CHLORAMBUCIL], the IC50 in the series with UV4 [1] came to 600 nM; with CHO-AA8 [11], 26000 nM; in the series with P388 [13], 6750 nM. The same compound came in with an OD in the series with P388 [4] of 225 mg/kg. Besides, the increase in life span (ILS) at 225 mg/kg in the series with P388 [12] amounted to 37%. In addition, the Ratio in the series filed under Cricetulus griseus was 58.

Consider `ClCCN(CCCl)c1ccc(OCCCCCNc2c3ccccc3nc3ccccc23)cc1`, for which the 50% inhibitory concentration (IC50) in the series on UV4 [1] is 5 nM; with P388 [3], 40 nM; with CHO-AA8 [5], 210 nM. The ILS at 20 mg/kg with P388 [14] turned out to be 28%. In [2], the “K NBP” value was 115000 s⁻¹. Further, the OD in the series on P388 [4] is 20 mg/kg. Further, the Ratio in the series listed under Cricetulus griseus was 46. The “K H” value in [6] was 100000 s⁻¹.

In the series on P388 [8], `O=C(CCCCNc1c2ccccc2nc2ccccc12)Nc1ccc(N(CCCl)CCCl)cc1` displayed an ILS at 45 mg/kg of 58%. In addition, the IC50 with UV4 [1] turned out to be 80 nM; in the series on P388 [3] it was 3200 nM; with CHO-AA8 [5] it was 900 nM. For the same compound, in series [2], the “K NBP” value turned out to be 2500 s⁻¹. Besides, the OD in the series on P388 [4] worked out at 45 mg/kg. The Ratio in the series listed under Cricetulus griseus came out at 11.3. Besides, in series [6], the “K H” value turned out to be 2900 s⁻¹.

`ClCCN(CCCl)c1ccc(SCCCCCNc2c3ccccc3nc3ccccc23)cc1` returned an ILS at 45 mg/kg with P388 [8] of 23%. The IC50 stood at 37 nM in the series with UV4 [1], 360 nM with P388 [3] and 710 nM in the series on CHO-AA8 [5]. Also, the “K NBP” value in series [2] was 16900 s⁻¹. Further, the OD in the series on P388 [4] worked out at 45 mg/kg. Moreover, the Ratio in the series listed under Cricetulus griseus was determined as 19. For the same compound, in series [6], the “K H” value is 5900 s⁻¹.

For `CCN(CC)CCCC(C)Nc1c2ccc(Cl)cc2nc2ccc(OC)cc12` (stereo not drawn) [QUINACRINE], the results for the IC50 in the series on UV4 [1] and in the series on CHO-AA8 [5] were 140 nM and 1700 nM, respectively. Also, the Ratio in the series listed under Cricetulus griseus was 11.5.
